Values after ≈ are worked out from the molar mass of the structure shown. Read-outs that look alike come from different tables or passages of the source.
Columns and labels:
B. subtilis [1] = assay: Modified disk diffusion, inhibition zone; settings: B. subtilis (G+)
[2] = system: Gram-positive and Gram-negative bacteria (B. subtilis, S. aureus, E. coli, P. aeruginosa); assay: Disk diffusion, inhibition zones summarised over the tested bacterial strains; settings: over the four tested bacterial strains
S. aureus [3] = assay: MIC assay, 2-fold serial dilution in 96-well microtiter plate; type: cell-based, Staphylococcus aureus (ATCC 12600)
Method: (§1) The outcomes of this in vitro assay test align with the results of the antimicrobial sensitivity test.
(§2) Appendix A (Supplementary File) provides experimental details.
(§3) In 96-well microtiter plates and […] of fresh bacterial culture of a single McFarland unit overnight, a double serial dilution of each compound […] in sterile standard saline were prepared to every single source well. […] The plates were incubated at 37 °C overnight. As an indicator of bacterial growth, […] of p-iodonitrotetrazolium violet (INT) was added to each well and incubated at 37 °C for 30 min. […] The colorless tetrazolidium salt acts as an electron accepter and is reduced to a red colored formazan product by biological activity organisms. Where bacterial growth was inhibited, the solution in the well remained clear after incubation with INT.

Gram-positive bacteria = assay: MBC summarised over Gram-positive bacteria; type: cell-based
Text: (§4) The MBC differs from the MIC. […] Unlike the MBC, which leads to mortality, the MIC hinders bacterial growth without causing death.[41] The common expression for MBC is MBC50, signifying the antibiotic concentration that eliminates 50% of the initial bacterial population.[42]

tested bacteria = assay: MIC summarised over the tested bacteria (abstract); type: cell-based; settings: read-out: MIC values
Method: as §1, §3

E. coli [4] = assay: Modified disk diffusion, inhibition zone; settings: E. coli (G-)
S. aureus [5] = assay: Minimum bactericidal concentration (MBC) assay; type: cell-based, Staphylococcus aureus
Text: as §4

B. subtilis [6] = assay: Minimum bactericidal concentration (MBC) assay; type: cell-based, Bacillus subtilis
Text: as §4

P. aeruginosa [7] = assay: Modified disk diffusion, inhibition zone; settings: P. aeruginosa (G-)
P. aeruginosa [8] = assay: Minimum bactericidal concentration (MBC) assay; type: cell-based, Pseudomonas aeuroginosa
Text: as §4

E. coli [9] = assay: Minimum bactericidal concentration (MBC) assay; type: cell-based, Escherichia coli
Text: as §4

B. subtilis [10] = assay: MIC assay, 2-fold serial dilution in 96-well microtiter plate; type: cell-based, Bacillus subtilis (ATCC 6051)
Method: as §1, §2, §3

E. coli [11] = assay: as above; type: cell-based, Escherichia coli (ATCC 11775)
Method: as §1, §2, §3

P. aeruginosa [12] = assay: as above; type: cell-based, Pseudomonas aeuroginosa (ATCC 10145)
Method: as §1, §2, §3

S. aureus [13] = assay: Modified disk diffusion, inhibition zone; settings: S. aureus (G+)
C. albicans [14] = assay: Antifungal MIC assay, 2-fold serial dilution; type: cell-based, Candida albicans
C. albicans [15] = assay: Modified disk diffusion, inhibition zone; settings: C. albicans (fungi)
A. flavus [16] = assay: Antifungal MIC assay, 2-fold serial dilution; type: cell-based, Aspergillus flavus
E. coli DNA gyrase = target: T1, E. coli DNA gyrase (Escherichia coli, UniProt P0AES6); assay: DNA gyrase inhibitory (supercoiling) assay; type: biochemical
T1 construct: purchased Inspiralis
Method: (§5) IC50 values were determined using seven different inhibitor concentrations and then calculated using the GraphPad Prism 6.0 software.
All the final compounds were tested for E. coli DNA gyrase inhibitory activity in a supercoiling assay. Activities were determined on streptavidin-coated 96-well microtiter plates from Thermo scientific Pierce. […] After washing off the unbound oligonucleotide, the enzyme test was performed. […] After that, the TF buffer (50 mM NaOAc with pH 5.0, 50 mM NaCl and 50 mM MgCl2) was added to terminate the enzymatic reaction. After additional incubation for 30 min at rt, during which biotin-oligonucleotide-plasmid triplex was formed, the unbound plasmid was washed off using TF buffer and SybrGOLD in T10 buffer (10 mM Tris HCl with pH 8.0 and 1 mM EDTA) was added. […] Initial screening was done at 100 or 10 μM concentration of inhibitors. […] GraphPad Prism software was used to calculate the IC50 values. The result is given as the average value of three independent measurements.

DHFR E. coli = target: T2, DHFR E. coli (Escherichia coli, UniProt P0ABQ4); assay: DHFR inhibitory assay; type: biochemical
T2 construct: purchased Inspiralis
Method: as §5

A. flavus [17] = assay: Modified disk diffusion, inhibition zone; settings: A. flavus (fungi)
DNA gyrase = target: DNA gyrase; design: method as in PMID 31711767; settings: cited from earlier work
tested fungal species = assay: MIC summarised over the tested fungal species (abstract); type: cell-based; settings: range over tested fungal species
[18] = system: A. flavus and C. albicans; assay: Disk diffusion, inhibition zones summarised over the fungal species; settings: against A. flavus and C. albicans
[19] = target: DNA, Gram-negative strains; design: method as in ref 29 = [29]; Ghaly M. A.; El-Bendary E. R.; Shehata I. A.; Bayomi S. M.; Habib E. Synthesis, antimicrobial activity, DNA-binding affinity and molecular docking of certain 1, 2, 4-triazolo [1, 5-a] pyrimidines; settings: cited from earlier work
[20] = target: DNA, Gram-positive strains; design: method as in ref 29 = [29]; Ghaly M. A.; El-Bendary E. R.; Shehata I. A.; Bayomi S. M.; Habib E. Synthesis, antimicrobial activity, DNA-binding affinity and molecular docking of certain 1, 2, 4-triazolo [1, 5-a] pyrimidines; settings: cited from earlier work
[21] = system: Gram-positive and Gram-negative bacterial strains; design: method as in ref 29 = [29]; Ghaly M. A.; El-Bendary E. R.; Shehata I. A.; Bayomi S. M.; Habib E. Synthesis, antimicrobial activity, DNA-binding affinity and molecular docking of certain 1, 2, 4-triazolo [1, 5-a] pyrimidines; settings: cited from earlier work
[22] = target: S. aureus topoisomerase IV; design: method as in ref 44 (a number printed in a supplementary file, which may have a reference list of its own: not looked up in the article's list); settings: internal standard value given in the method; cited from earlier work
[23] = Staphylococcus aureus, read-out: MIC
[24] = Staphylococcus aureus, read-out: MBC
[25] = Bacillus subtilis, read-out: MBC
[26] = Pseudomonas aeruginosa, read-out: MBC
[27] = Escherichia coli, read-out: MBC
[28] = Bacillus subtilis, read-out: MIC
[29] = Escherichia coli, read-out: MIC
[30] = Pseudomonas aeruginosa, read-out: MIC
[31] = Candida albicans, read-out: MIC
[32] = Aspergillus flavus, read-out: MIC

T2 sequence (P0ABQ4 whole entry): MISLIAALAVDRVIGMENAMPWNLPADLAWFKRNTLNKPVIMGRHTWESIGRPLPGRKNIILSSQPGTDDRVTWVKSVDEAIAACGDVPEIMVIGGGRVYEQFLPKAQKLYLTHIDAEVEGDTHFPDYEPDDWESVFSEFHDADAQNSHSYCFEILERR

Compound	Inhibition Zone (IZ) Diameter (B. subtilis [1]) [mm/mL]	Inhibition Zone (IZ) Diameter [2]	MIC (S. aureus [3]; [23]) [µM]	Inhibition Zone (IZ) Diameter (E. coli [4]) [mm/mL]	MBC (S. aureus [5]; [24]) [µM]	MBC (B. subtilis [6]; [25]) [µM]	Inhibition Zone (IZ) Diameter (P. aeruginosa [7]) [mm/mL]	MBC (P. aeruginosa [8]) [µM]	MBC (P. aeruginosa [8]; [26]) [µM]	MBC (E. coli [9]) [µM]	MBC (E. coli [9]; [27]) [µM]	MIC (B. subtilis [10]; [28]) [µM]	MIC (E. coli [11]; [29]) [µM]	MIC (P. aeruginosa [12]) [µM]	MIC (P. aeruginosa [12]; [30]) [µM]	MIC (C. albicans [14]; [31]) [µM]	MIC (A. flavus [16]; [32]) [µM]	Inhibition Zone (IZ) Diameter (A. flavus [17]) [mm/mL]	also measured
O=C(O)c1cn(C2CC2)c2cc(N3CCNCC3)c(F)cc2c1=O [Ciprofloxacin, reference compound]	40	40 mm	0.03 ± 0.002 (≈ 0.00994 µg/mL)	40	0.046 (≈ 0.0152 µg/mL)	0.019 (≈ 0.0063 µg/mL)	40	0.09 ± 0.006 (≈ 0.0298 µg/mL)	0.09 (≈ 0.0298 µg/mL)	0.09 ± 0.006 (≈ 0.0298 µg/mL)	0.09 (≈ 0.0298 µg/mL)	0.01 (≈ 0.00331 µg/mL)	0.06 ± 0.004 (≈ 0.0199 µg/mL)	0.06 ± 0.005 (≈ 0.0199 µg/mL)	0.06 (≈ 0.0199 µg/mL)	–	–	–	MBC (Gram-positive bacteria): 0.019 to 0.045 µM (≈ 0.0063 to 0.0149 µg/mL); MIC (tested bacteria): 10 to 90 µM (≈ 3.31 to 29.8 µg/mL); MBC (S. aureus [5]): 0.045 ± 0.002 µM (≈ 0.0149 µg/mL); MBC (B. subtilis [6]): 0.019 ± 0.001 µM (≈ 0.0063 µg/mL); MIC (B. subtilis [10]): 0.01 ± 0.001 µM (≈ 0.00331 µg/mL)
COc1ccc(-c2cc(-c3ccc(C)cc3)n3nc(-c4ccccc4)nc3n2)cc1 [Compound 9o, 5-(4-Methoxyphenyl)-2-phenyl-7-p-tolyl-1,2,4-triazolo[1,5-a]pyrimidine]	43	42–45 mm	0.024 (≈ 0.00942 µg/mL)	43	0.046 (≈ 0.0181 µg/mL)	0.032 (≈ 0.0126 µg/mL)	42	0.084 ± 0.005 (≈ 0.033 µg/mL)	0.084 (≈ 0.033 µg/mL)	0.087 ± 0.006 (≈ 0.0341 µg/mL)	0.087 (≈ 0.0341 µg/mL)	0.016 (≈ 0.00628 µg/mL)	0.051 (≈ 0.02 µg/mL)	0.053 ± 0.004 (≈ 0.0208 µg/mL)	0.053 (≈ 0.0208 µg/mL)	19.5 (≈ 7.65 µg/mL)	15.5 (≈ 6.08 µg/mL)	35	Inhibition Zone (IZ) Diameter (S. aureus [13]): 45; MIC (C. albicans [14]): 19.50 ± 1 µM (≈ 7.65 µg/mL); Inhibition Zone (IZ) Diameter (C. albicans [15]): 38 mm; MIC (S. aureus [3]): 0.024 ± 0.001 µM (≈ 0.00942 µg/mL); MIC (A. flavus [16]): 15.50 ± 1 µM (≈ 6.08 µg/mL); IC50 (E. coli DNA gyrase): 182 ± 10 nM; MBC (S. aureus [5]): 0.046 ± 0.002 µM (≈ 0.0181 µg/mL); IC50 (DHFR E. coli): 3900 ± 100 nM; MBC (B. subtilis [6]): 0.032 ± 0.002 µM (≈ 0.0126 µg/mL); folds less potent than ciprofloxacin as a bactericidal agent (MBC) (B. subtilis [6]): 1.7; MIC (B. subtilis [10]): 0.016 ± 0.001 µM (≈ 0.00628 µg/mL); times less effective than ciprofloxacin (MIC) (B. subtilis [10]): 1.6; MIC (E. coli [11]): 0.051 ± 0.003 µM (≈ 0.02 µg/mL)
COc1ccc(-c2cc(-c3ccc(OC)cc3)n3nc(-c4ccccc4)nc3n2)cc1 [Compound 9p, 5,7-Bis(4-methoxyphenyl)-2-phenyl-1,2,4-triazolo[1,5-a]pyrimidine]	38	approximately 38 mm	0.069 (≈ 0.0282 µg/mL)	37	0.069 ± 0.003 (≈ 0.0282 µg/mL)	0.052 ± 0.003 (≈ 0.0212 µg/mL)	38	0.098 ± 0.006 (≈ 0.04 µg/mL)	0.098 (≈ 0.04 µg/mL)	0.097 ± 0.006 (≈ 0.0396 µg/mL)	0.097 (≈ 0.0396 µg/mL)	0.035 ± 0.002 (≈ 0.0143 µg/mL)	0.069 ± 0.004 (≈ 0.0282 µg/mL)	0.068 ± 0.005 (≈ 0.0278 µg/mL)	0.068 (≈ 0.0278 µg/mL)	23.7 ± 1 (≈ 9.68 µg/mL)	19.9 ± 1 (≈ 8.13 µg/mL)	30	Inhibition Zone (IZ) Diameter (S. aureus [13]): 39; Inhibition Zone (IZ) Diameter (C. albicans [15]): 31 mm; MIC (S. aureus [3]): 0.037 ± 0.002 µM (≈ 0.0151 µg/mL); IC50 (E. coli DNA gyrase): 205 ± 13 nM; IC50 (DHFR E. coli): 5400 ± 200 nM
O=C(NNC(=O)c1c[nH]c2ncnn2c1=O)c1ccccc1 [Compound IV]	–	–	–	–	–	–	–	–	–	–	–	–	–	–	–	–	–	–	IC50 (DNA gyrase): 680 nM
OC(Cn1cncn1)(Cn1cncn1)c1ccc(F)cc1F [Fluconazole, reference compound]	–	–	–	–	–	–	–	–	–	–	–	–	–	–	–	17.5 (≈ 5.36 µg/mL)	11.5 (≈ 3.52 µg/mL)	40	MIC (C. albicans [14]): 17.50 ± 1 µM (≈ 5.36 µg/mL); MIC (tested fungal species): 11.5 to 17.5 µM (≈ 3.52 to 5.36 µg/mL); MIC (A. flavus [16]): 11.50 ± 1 µM (≈ 3.52 µg/mL); Inhibition Zone (IZ) Diameter [18]: 40 mm
COc1ccc(CCc2nc3[nH]cc(C(=O)NN)c(=O)n3n2)cc1OC [IIIa]	–	–	–	–	–	–	–	–	–	–	–	–	–	–	–	–	–	–	IC50, DNA displacement experiment [19]: 40 µg/mL (≈ 112 µM); IC50, DNA displacement experiment [20]: 61 µg/mL (≈ 170 µM); MIC [21]: ≥ 2 µg/mL
NNC(=O)c1c[nH]c2nc(N3CCCC3)nn2c1=O [IIIb]	–	–	–	–	–	–	–	–	–	–	–	–	–	–	–	–	–	–	IC50, DNA displacement experiment [19]: 40 µg/mL (≈ 152 µM); IC50, DNA displacement experiment [20]: 61 µg/mL (≈ 232 µM); MIC [21]: ≥ 2 µg/mL
CO[C@@H]1[C@@H](OC(N)=O)[C@@H](O)[C@H](Oc2ccc3c(O)c(NC(=O)c4ccc(O)c(CC=C(C)C)c4)c(=O)oc3c2C)OC1(C)C [Novobiocin]	–	–	–	–	–	–	–	–	–	–	–	–	–	–	–	–	–	–	IC50 [22]: 26700 nM
